Results reported in patent publication US20160038439A1, “Use of 7-a-[9-(4,4,5,5,5-pentafluoropentylsulfinyl)nonyl]-estra-1,3,5(10)- triene-3,17B-diol and derivatives thereof” (XI'ANLIBANG PHARMACEUTICAL TECHNOLOGY CO., LTD., priority 2013, published 2016).
Marks after values point to notes of the source that are not given here.

Key:
[1] = system: chicken type II collagen-induced arthritis model in SD rats; test: Hindfoot joint score in chicken type II collagen-induced arthritis model in SD rats; assay type: in vivo; set-up: scale not given here; details: tail vein, every other day
Description: (§1) After inflamed model was successfully established in SD rats, the SD rats were randomly divided into model control group (12 rats), low, medium dose group (8 rats for each), and high dose group (12 rats) of test drug depending on body weight. Rats in the model control group were administered a blank fat emulsion injection (0.5 mL) by tail vein injection every other day for 7 days; rats in the low and medium dose group of test drug were administered a fat emulsion injection of a compound of Formula A (specifically including Compounds I-VI described hereafter) by tail vein injection every other day for 7 days; rats in the high dose group of test drug were administered a fat emulsion injection of a compound of Formula A by tail vein injection every other day for 14 days. 12 same models in the normal control group were also administered a blank fat emulsion injection. Indexes such as hindfoot joint score, hindfoot joint thickness measurement, TNF-α level in serum and hindfoot joint tissues, hindfoot joint pathological section and the like were used to evaluate efficacy of the drug.
(§2) Chicken type II collagen was dissolved in 0.1 mol/L acetic acid at 4° C. while stirring so as to be thoroughly dissolved at a concentration of 2 mg/mL The resulting solution was put into a refrigerator at 4° C. overnight. Liquid paraffin and lanolin were mixed at a ratio of 2:1 (volume ratio), and the mixture was autoclaved to prepare an incomplete Freund's adjuvant (IFA). Bacillus Calmette Guerin (BCG) vaccine (60 mg) was inactivated at 80° C. for 1 hour and transferred to a mortar, into which was dropwise added IFA. After being uniformly grinded, the resulting mixture was pushed and sucked repeatedly by double-syringe to prepare a complete Freund's adjuvant (CFA), with the final concentration of BCG vaccine being 2 mg/mL. An equal amount of chicken type II collagen acid solution was mixed with CFA into a stable emulsion (containing 1 mg chicken type II collagen per milliliter).
(§3) 12 female SD rats were randomly selected from 192 female SD rats as normal control group. The remaining 180 rats was disinfected with iodine tincture. After being deiodinated with 75% ethanol, each of the rat was administered 150 μL collagen emulsion by intradermal injection at the base of the tail, and was administered 100 μL collagen emulsion by intradermal injection at the vola pedis of right hindfoot. Thus, totally 250 μL for each rat was administered. 7 days later, an equal amount of collagen emulsion was intraperitoneal injected as a secondary immune.
(§4) Animal grouping and administration: inflamed rats were divided into model control group, low, medium and high dose groups of test drug based on body weight.
(§5) Rats in each group were scored for the hindfoot joint and measured for the thickness of ankle joint before being inflamed. Normal rats were taken blood from orbital venous plexus. The serum of the blood was separated out and cryopreserved at −20° C. to detect cytokines. Rats were scored for joint after being inflamed for 3 days, and were measured for the thickness of ankle joint before administration (on the 19th day since being inflamed), on the 3rd day and 8th day after administration (on the […] since being inflamed). Rats in each group were taken blood from orbital venous plexus when inflammation was severe (on the 23rd day after being inflamed). The serum of the blood was separated out and cryopreserved at −20° C. 8 rats for each group were sacrificed on the 28th day after being inflamed and were taken blood from intraperitoneal vein. The serum of the blood was separated out and was subjected to serological detection (TNF-α). The rest of rats were sacrificed on the 35th day after being inflamed, and histology index detection was carried out

[2] = system: chicken type II collagen-induced arthritis model in SD rats; test: Thickness of right hindfoot ankle joint by microcalliper, collagen-induced arthritis rats; assay type: in vivo
Description: as §1, §2, §3, §4, §5

[3] = system: TNF-α; test: TNF-α level in serum of rats with arthritis (ELISA); assay type: in vivo, SD rats
Description: as §1
(§6) Compound I used in the present invention was purchased from Xi′ an Libang Pharmaceutical Co., Ltd.; Compounds II-IV were synthesized by the following method. SD rats used in the present invention were purchased from Super-B&K Laboratory Animal Corp. Ltd.; chicken type II collagen was purchased from Sigma, Lot No. 87H5227; rat tumor necrosis factor-α [TNF-α] enzyme-linked immunoassay kit (ELISA) was purchased from Shanghai Biovol Biotech Co., Ltd., Lot No. BV-E12102201.
as §2, §3, §4
as §5, with “8 rats for each group were sacrificed on the 28th day after being inflamed and were taken blood from intraperitoneal vein. The serum of the blood was separated out and was subjected to serological detection (TNF-α). The rest of rats were sacrificed on the 35th day after being inflamed, and histology index detection was carried out” left out

[4] = system: TNF-α; test: TNF-α level in hindfoot ankle joint tissue of rats with arthritis; assay type: in vivo, SD rats
Description: as §1, §6, §2, §3, §4
as §5, with “8 rats for each group were sacrificed on the 28th day after being inflamed and were taken blood from intraperitoneal vein. The serum of the blood was separated out and was subjected to serological detection (TNF-α). The rest of rats were sacrificed on the 35th day after being inflamed, and histology index detection was carried out” left out

[5] = system: chicken type II collagen-induced arthritis model in SD rats; test: Pathological examination score of hindfoot ankle joint of rats with arthritis; assay type: in vivo; details: high dose group (1.40-2.16 mg/kg per compound), every other day for 14 days, n=4
Description: as §1, §2
as §3, with “Thus, totally 250 μL for each rat was administered. 7 days later, an equal amount of collagen emulsion was intraperitoneal injected as a secondary immune.” left out
Rats in each group were scored for the hindfoot joint and measured for the thickness of ankle joint before being inflamed. […] Rats were scored for joint after being inflamed for 3 days, and were measured for the thickness of ankle joint before administration (on the 19th day since being inflamed), on the 3rd day and 8th day after administration (on the 20th day since being inflamed). […]

[6] = high dose group, before administration (baseline)
[7] = high dose group, the 3rd day after administration
[8] = high dose group, the 8th day after administration
[9] = low dose group, before administration (baseline)
[10] = low dose group, the 3rd day after administration
[11] = low dose group, the 8th day after administration
[12] = medium dose group, before administration (baseline)
[13] = medium dose group, the 3rd day after administration
[14] = medium dose group, the 8th day after administration

## 7-α-[9-(4,4,5,5,5-pentafluoropentylsulfinyl)nonyl]-estra-1,3,5(10)-triene-3-hydroxyl-17-undecanoyl [Compound II]
[1]; [6]
  Mean value of hindfoot joint score: 4.7
[1]; [7]
  Mean value of hindfoot joint score: 5.3**^#
[1]; [8]
  Mean value of hindfoot joint score: 4.9
[1]; [9]
  Mean value of hindfoot joint score: 4.9
[1]; [10]
  Mean value of hindfoot joint score: 4.8**
[1]; [11]
  Mean value of hindfoot joint score: 5.6^#
[1]; [12]
  Mean value of hindfoot joint score: 4.9
[1]; [13]
  Mean value of hindfoot joint score: 4.9**
[1]; [14]
  Mean value of hindfoot joint score: 4.9
[2]; [6]
  Thickness of ankle joint (mean ± SD): 6.31 ± 0.52 mm
[2]; [7]
  Thickness of ankle joint (mean ± SD): 6.29 ± 0.69 mm
[2]; [8]
  Thickness of ankle joint (mean ± SD): 5.83 ± 0.61 mm
[2]; [9]
  Thickness of ankle joint (mean ± SD): 6.39 ± 0.68 mm
[2]; [10]
  Thickness of ankle joint (mean ± SD): 6.05 ± 0.55 mm
[2]; [11]
  Thickness of ankle joint (mean ± SD): 5.98 ± 0.19 mm
[2]; [12]
  Thickness of ankle joint (mean ± SD): 5.99 ± 0.57 mm
[2]; [13]
  Thickness of ankle joint (mean ± SD): 6.31 ± 0.54 mm
[2]; [14]
  Thickness of ankle joint (mean ± SD): 6.31 ± 0.51 mm
[3]; [7]
  TNF-α level in serum (mean ± SD): 26.72 ± 35.26 pg/mL
[3]; [8]
  TNF-α level in serum (mean ± SD): 25.65 ± 20.66 pg/mL
[3]; [10]
  TNF-α level in serum (mean ± SD): 48.28 ± 94.84 pg/mL
[3]; [11]
  TNF-α level in serum (mean ± SD): 201.35 ± 250.23 pg/mL
[3]; [13]
  TNF-α level in serum (mean ± SD): 11.00 ± 9.39 pg/mL
[3]; [14]
  TNF-α level in serum (mean ± SD): 75.12 ± 93.40 pg/mL
[4]; left ankle joint, high dose group
  TNF-α level in ankle (mean ± SD): 14.08 ± 4.09 pg/mL
[4]; left ankle joint, low dose group
  TNF-α level in ankle (mean ± SD): 13.79 ± 4.68 pg/mL
[4]; left ankle joint, medium dose group
  TNF-α level in ankle (mean ± SD): 15.91 ± 5.84 pg/mL
[4]; right ankle joint, high dose group
  TNF-α level in ankle (mean ± SD): 15.11 ± 4.32 pg/mL
[4]; right ankle joint, low dose group
  TNF-α level in ankle (mean ± SD): 13.79 ± 3.26 pg/mL
[4]; right ankle joint, medium dose group
  TNF-α level in ankle (mean ± SD): 12.13 ± 3.35 pg/mL
[5]
  Joint lesion score (mean ± SD): 2.50 ± 2.65
